Experimental data: patent US20200087258A1, “INHIBITOR OF CITRATE TRANSPORTER AND THEIR USE IN THERAPY” (Eternygen GmbH, priority 2017, published 2020)

What was measured:
GLT-1 = biological target: T1, GLT-1 (Homo sapiens, UniProt P43004); assay: 3H-glutamate uptake counter assay in HEK293 cells overexpressing human GLT-1; type: cell-based
T1 construct: host or cells: HEK293 (virus made in GP293 packaging cells)
Protocol: The compound was obtained by screening of a library containing more than 50,000 lead-like compounds and fragments. The library was tested using a functional citrate uptake assay with HEK293 cells overexpressing recombinant human INDY. The following hit confirmation was conducted in the same assay system. To confirm the activity of selected compounds on the target INDY another cell assay was conducted. In this assay system citrate uptake was measured using HepG2 cells which endogenously express INDY. Furthermore selectivity of selected compounds was tested for two other transporters in different assay systems. The first transporter was the glutamate transporter GLT-1 tested in a glutamate uptake assays using HEK293 cells overexpressing recombinant human GLT-1. The second transporter was the glucose transporter GLUT1 tested in a glucose uptake assay using Huh-7 cells which endogenously express GLUT1. Compounds were considered to be selective with an at least 5-fold higher activity for INDY than for the other two transporters.
Cells were maintained in cell medium using cell culture grade flasks (CellSTACK Corning, 500 cm2 dishes or T175 depending on cell number). The selection antibiotic and G418 (800 μg/ml) was added during cultivation but not for seeding into assay plates. For splitting, cells were washed with PBS (w/o Ca2+, Mg2+, phenol red) and detached with Trypsin/EDTA. Throughout cultivation cells were kept sub-confluent. Detached cells (50,000 cells/well) were seeded in 96-well plates (white, clear bottom from Corning #655098) and incubated over night before usage in the assay. The following media were used. For HEK293 cells expressing INDY MEM (PAA)+10% FCS+1×P/S+2 mM L-Gln; for HEK293 cells expressing GLT-1 DMEM (Gibco)+10% FCS+400 µg/ml G418; for Huh7 cells DMEM (Gibco)+10% FCS+2 mM L-Gin (+1×P/S); for HepG2 cells MEM (PAA, Cat # E15-024)+10% FCS+2 mM L-Gin+1×NEAA+1 mM Na-Pyruvat
The following assay buffers for the particular uptake reaction were used. Citrate uptake buffer: 120 mM NaCl, 5.4 mM KCl, 0.8 mM MgSO4, 5 mM glucose, 1.8 mM CaCl2, 25 mM Hepes, 25 mM MES, pH 6.5. Glutamate uptake buffer: HBSS, 1 mM CaCl2, 1 mM MgCl2, 20 mM Hepes pH 7.4. Glucose uptake buffer: 25 mM Hepes+25 mM MES pH 7.4, 120 mM NaCl, 5.4 mM KCl, 1.8 mM CaCl2, 0.8 mM MgSO4.
As a counter assay, Glutamate uptake by the GLT-1 transporter was used. The principle of the assay is to measure the uptake of ^3H labelled glutamate into HEK cells, which overexpress human GLT-1.
The generation of a GLT-1 cell line was performed as follows: human GLT11 isoform sv1 cDNA (Origene # RC223924) was cloned into vector pFB-Neo-CMV-hGLT1 using QIAfilter Plasmid Midi Kit (Qiagen). Virus was generated in GP293 packaging cells (transfection of plasmid with Lipofectamine 2000+OptiMEM). For transfection into HEK cells GP293, supernatant containing virus was passed through a 0.45 micron sterile filter and DEAE-dextran was added at […] final concentration. The solution was used to transfect HEK293 cells at 37° C., 8.5% CO2. After 24 h selection marker G418 at 400 μg/ml was added and cultivation medium performed in DMEM 10% FBS.
The assay was performed in a 96-well format using repeated washing steps, cell lysis and addition of scintillation fluid. Assay buffer was HBSS, 1 mM CaCl2, 1 mM MgCl2, […] pH 7.4. Cells were seeded into white clear-bottom 96-well plates (50,000/well) in the presence of Poly-D-Lysine and incubated at 37° C. for 16-24 hours. Subsequently the plates were washed once with assay buffer using automated washing/LS 405 Selectors, BioTek ending with a buffer volume of 40 μl. Then 5 μl of compound solution in assay buffer was added and incubated for 20 min at 37° C. in cell incubator, HERA cell Heraeus. Afterwards 10 μl of substrate 3H-Glu (3 nM) were added and incubated for another 20 min at 37° C. in cell incubator, HERAcell. Then the plates were washed once with 200 μl cold assay buffer and 150 μl scintillation fluid was added. […]

INDY = INDY (Homo sapiens, UniProt Q86YT5); assay: Fatty acid synthesis (FAS) assay from 14C-citrate in HepG2 cells; type: cell-based; details: 14C-citrate into fatty acids
Protocol: To test the functional activity of selected compounds and to bridge between the in vitro assay for citrate uptake to the physiological relevant lipid accumulation in liver cells a further functional cell assay was performed. This assay measured the effect of selected compounds on the citrate mediated fatty acid synthesis in hepatocytes.
Fatty acid synthesis (FAS) assay in HepG2: The principle of the assay is to measure the generation of ^14C-labelled fatty acids after uptake of ^14C labelled citrate into HepG2 cells. HepG2 cells were seeded into white clear-bottom 96-well plates (50,000/well) coated with collagen and incubated at 37° C. for 16-24 hours. After that plates were washed once with 100 μl PBS (+CaCl2+MgCl2) and 40 μl assay medium ([…] containing 11 mM glucose, 10 mM HEPES and 1 nM Insulin) per well was added. Test substances in assay medium were added ([…], 0.5% DMSO) and incubated for 20 min. After that 10 μl assay medium containing ^14C-citrate (final concentration 50 nM) and PrestoBlue reagent (1× final concentration; Life Technologies) were added and incubated for 60 min (37° C., 5% CO2). Cell viability was measured (Safire microplate reader, ex: 560/em: 590) and plates were incubated for another 30 min. Medium was removed by inverting the plate and cells were washed once with 100 μl ice-cold PBS. Cells were lysed with 50 μl lysis buffer (100 mM NaOH, 0.1% Triton X-100) and plate was sealed with Tape Pads and vortexed. For the saponification reaction plates were incubated for 16-24 hours at 80° C. Seals were removed and 200 μl […] was added for neutralisation of the pH. 150 μl from each well was transferred into the corresponding wells of a 96-well CytoStarT plate (Perkin Elmer) and sealed with TopSeal A (Perkin Elmer). Plates were incubated for 4 h at 70° C. and for 1 h at room temperature in the dark. Signal of ^14C radioactivity was measured (TopCount NXT scintillation counter, 1 min/well). As a positive control 5 mM citrate or 40 μM C75 (Sigma, C5490) was applied.

INDY, sequence (Q86YT5 whole entry): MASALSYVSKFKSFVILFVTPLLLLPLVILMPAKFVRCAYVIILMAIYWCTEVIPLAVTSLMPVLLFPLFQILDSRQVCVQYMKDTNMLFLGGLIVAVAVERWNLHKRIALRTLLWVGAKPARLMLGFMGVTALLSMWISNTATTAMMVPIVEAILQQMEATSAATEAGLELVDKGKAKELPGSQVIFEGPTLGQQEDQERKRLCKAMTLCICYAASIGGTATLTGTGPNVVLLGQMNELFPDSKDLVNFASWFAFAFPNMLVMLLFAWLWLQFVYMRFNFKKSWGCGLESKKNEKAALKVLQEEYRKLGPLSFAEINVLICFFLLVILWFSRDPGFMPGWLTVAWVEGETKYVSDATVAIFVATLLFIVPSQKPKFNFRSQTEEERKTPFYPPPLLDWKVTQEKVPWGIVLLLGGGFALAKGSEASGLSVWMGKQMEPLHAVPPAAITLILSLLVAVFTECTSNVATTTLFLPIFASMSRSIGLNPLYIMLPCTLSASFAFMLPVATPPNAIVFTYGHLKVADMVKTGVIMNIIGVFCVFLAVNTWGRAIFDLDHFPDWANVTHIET
T1 sequence (P43004 whole entry): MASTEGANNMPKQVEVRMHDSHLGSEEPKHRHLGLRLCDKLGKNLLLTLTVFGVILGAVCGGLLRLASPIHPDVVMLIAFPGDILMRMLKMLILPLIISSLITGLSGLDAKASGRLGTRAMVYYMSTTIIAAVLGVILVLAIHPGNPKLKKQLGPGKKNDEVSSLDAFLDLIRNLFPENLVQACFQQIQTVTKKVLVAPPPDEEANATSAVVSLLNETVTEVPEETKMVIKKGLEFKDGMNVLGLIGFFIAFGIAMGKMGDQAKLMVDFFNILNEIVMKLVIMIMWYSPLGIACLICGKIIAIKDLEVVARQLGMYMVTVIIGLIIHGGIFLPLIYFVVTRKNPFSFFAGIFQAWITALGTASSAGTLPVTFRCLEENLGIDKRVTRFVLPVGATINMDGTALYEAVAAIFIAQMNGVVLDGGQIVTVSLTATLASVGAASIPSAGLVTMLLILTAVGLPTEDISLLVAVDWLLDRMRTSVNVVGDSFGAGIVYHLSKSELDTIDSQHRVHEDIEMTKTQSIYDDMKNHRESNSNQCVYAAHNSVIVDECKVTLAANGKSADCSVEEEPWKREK

IC50 (GLT-1) [nM] | IC50 (INDY) [nM] | SMILES
> 20000 | 30 | O=C(NCc1ccccc1F)C1CCN(S(=O)(=O)c2cc(Cl)cc(Cl)c2)CC1 [Example 44, 1-(3,5-dichlorobenzenesulfonyl)-N-[(2-fluorophenyl)methyl]piperidine-4-carboxamide]
> 20000 | 600 | O=C(NCc1ccccn1)C1CCN(S(=O)(=O)c2cc(Cl)cc(Cl)c2)CC1 [Example 55, 1-(3,5-dichlorobenzenesulfonyl)-N-[(pyridin-2-yl)methyl]piperidine-4-carboxamide]
> 20000 | 200 | O=C(NCc1ccccn1)C1CCN(S(=O)(=O)c2cc(Cl)cc(C3CC3)c2)CC1 [Example 101, 1-(3-chloro-5-cyclopropylbenzenesulfonyl)-N-[(pyridin-2-yl)methyl]piperidine-4-carboxamide]

The next lines start with the molecule.

SMILES | IC50 (GLT-1) [nM] | IC50 (INDY) [nM]
O=C(NCc1ccccc1F)C1CCN(S(=O)(=O)/C=C/c2ccccc2)CC1 [Example 5] | > 50000 | 1300
CC(C)(C)c1ccc(S(=O)(=O)N2CCC(C(=O)NCc3ccccc3F)CC2)cc1 [Example 12, 1-(4-tert-butylbenzenesulfonyl)-N-[(2-fluorophenyl)methyl]piperidine-4-carboxamide] | > 20000 | 600
O=C(NCc1ccccc1F)C1CCN(S(=O)(=O)c2ccc(C(F)(F)F)cc2)CC1 [Example 25, N-[(2-fluorophenyl)methyl]-1-[4-(trifluoromethyl)benzenesulfonyl]piperidine-4-carboxamide] | > 20000 | 400
COc1ccccc1CNC(=O)C1CN(S(=O)(=O)c2ccc(C(C)(C)C)cc2)C1 [Example 50, 1-(4-tert-butylbenzenesulfonyl)-N-[(2-methoxyphenyl)methyl]azetidine-3-carboxamide] | > 20000 | 6200
O=C(NCc1ccccn1)C1CCN(S(=O)(=O)c2ccc(C(F)(F)F)cc2)CC1 [Example 57, N-[(pyridin-2-yl)methyl]-1-[4-(trifluoromethyl)benzenesulfonyl]piperidine-4-carboxamide] | > 20000 | 2500
O=C(NCc1ccccn1)C1CCN(S(=O)(=O)c2ccc(S(F)(F)(F)(F)F)cc2)CC1 [Example 86, 1-[4-(pentafluoro-lambda6-sulfanyl)benzenesulfonyl]-N-[(pyridin-2-yl)methyl]pipendine-4-carboxamide] | > 20000 | 400
O=C(NCc1ccccc1CO)C1CCN(S(=O)(=O)c2cc(Cl)cc(Cl)c2)CC1 [Example 87, 1-(3,5-dichlorobenzenesulfonyl)-N-{[2-(hydroxymethyl)phenyl]methyl}piperidine-4-carboxamide] | > 20000 | 600
